The subject of series [1] is Panc-1 engrafted mice. As to the kind of experiment: Anti-tumor effects in Panc-1 (PANC-Luc) engrafted NOD/SCID mice. Format: in vivo. The note with it: P19 conjugates 1 nmol tail vein; gemcitabine 3 mg I.P.; listed as Gemcitabine. The method, then: To establish the traceable tumor animal models, subcutaneous implantations were performed by injecting 25 μl of a monocellular suspension containing 10^6 Panc-1 cell with luciferase expression (PANC-Luc) cells and a 25p growth factor reduced matrigel matrix (BD Biosciences, USA) under the dorsal skin of 6-week-old female NOD/SCID mice (BioLasco Co., Taiwan). The firefly luciferase fragment was inserted into the pcDNA-3.1(+) backbone encoding ampicillin resistance for selection in bacteria and neo gene for selection in mammalian cells. The recombinant constructs for stable cell line were purified using plasmid midi kit (QIAGEN, USA). PANC-1 cells were transfected with recombinant constructs for 24 h. The following day, culture medium was replaced with standard medium containing 1.2 mg/mL G418 (Merck, Germany) for stable clone selection. […] Luciferase expression was assessed using the Luciferase Assay System. […] Tumor growth was monitored by evaluating bioluminescence using the spectrum of IVIS 200 before first injection and one week after last injection. […] The mice were imaged in the spectrum of IVIS 200 and bioluminescent signals were analyzed using Living Image Software (Caliper Life Sciences, Alameda, Calif.). Tumor size was measured by ruler and calculated by the formula 0.52*length*width*width

Series [2] in a line: Cytotoxicity compared with gemcitabine (hemoglobin, WBC, neutrophil, platelet counts). Format: in vivo. The settings on record: engrafted mice. The method, then: FIG. 5A-5F. In vivo experiments. (FIG. 5A) The conjugates of P19 and P1 was injected via tail vein injection in Panc-1 engrafted mice. The conjugates were injected day 1, 3 and 5 for 3 or 4 weeks. Student t-test (unpaired, two-tailed) was used for statistical analysis. *t-test: […] (FIG. 5B) The photon was counter by I.V.I.S and signal changes were calculated in traceable xenoengrafted mice. (FIG. 5C) The representative images of the spectrum of IVIS 200 of each group. (FIG. 5D) Comparison of anti-tumor effect of C/EBPα-saRNA with gemcitabine in Panc-1 engrafted mice by tail vein injection. Tumor size was measured. *t-test: […] (FIG. 5E) The tumor growth inhibition of gemcitabine-resistant ASPC-1 engrafted mice by tail vein injection. Signal changes were calculated. Metastasis to ascites was measured. *t-test: […] (FIG. 5F) Comparison of cytotoxicity with gemcitabine. Hemoglobin, WBC, neutrophil and platelet were counted.

Series [3] concerns pancreatic cancer. The settings on record: single agent, improved from 16; cited from earlier work.
Series [4] relates to HepG2 cells. The note with it: HepG2, Reebye et al.; cited from earlier work.
The subject of series [5] is tumor burden. The settings on record: intravenous injection; cited from earlier work.

We go through two compounds from patent publication US11261449B2, “Anti-cancer RNA aptamers” (CITY OF HOPE, priority 2015, dated 2022).

`Nc1ccn([C@@H]2O[C@H](CO)[C@@H](O)C2(F)F)c(=O)n1` [gemcitabine, 4-amino-1-(2-deoxy-2,2-difluoro-β-D-erythro-pentofuranosyl)pyrimidin-2(1H)-on]: the “anti-tumor effects compared with PBS group” value in series [1] is given as “failed to reduce tumor growth”. Moreover, the “cytotoxicity (hemoglobin, WBC, neutrophil, platelet)” value in series [2] was “cytotoxicity such as reduction of hemoglobin and neutrophils”; in series [2] (listed as Gemcitabine), “cytotoxicity on RBCs and neutrophils”. Also, the 1-year survival rate in series [3] is recorded as 19%.
For the compound “C/EBPα-saRNA: saRNA targeting CCAAT/enhancer-binding protein-α; sense and antisense strands AW1, SEQ ID NO:22/23 (sense CGGUCAUUGUCACUGGUCAUU; antisense UGACCAGUGACAAUGACCGUU; listed as RNA, chemistry not fully specified)”, in series [4], the cell proliferation entry is reported as “decreases cell proliferation in HepG2 cells”. Besides, in series [5], the tumor burden entry is “decreased tumor burden”.
